The text below walks through data of PMC7248809, “Differential Proliferation Effect of the Newly Synthesized Valine, Tyrosine and Tryptophan–Naphthoquinones in Immortal and Tumorigenic Cervical Cell Lines” (Molecules, 2020).

In data set [1] the test system is CaLo cells (HPV-18 positive cervical tumor line). In words: Cell proliferation (crystal violet), dose-response, CaLo. The following applies: 72 h.
Experimental: (§1) Immortal and HPV negative cell line HaCaT cells was selected as control for both immortality status and HPV content. […] In order to evaluate the effect of the naphthoquine amino acid derivatives in immortal and tumorigenic cells with HPV positive and negative status we performed a dose-response analysis.
(§2) (A) HaCaT HPV negative cell line cells were treated with 6.25, 12.5, 25, 50, 100 and 200 μM of naphthoquinone amino acid derivatives to assay proliferation rate at 72 h post-treatment. (B) SiHa HPV 16 positive cancer cells were treated with 6.25, 12.5, 25, 50, 100 and 200 μM of naphthoquinone amino acid derivatives to assay proliferation rate at 72 h post-treatment. (C) CaLo HPV 18 positive cancer cells were treated with 6.25, 12.5, 25, 50, 100 and 200 μM of naphthoquinone amino acid derivatives to assay proliferation rate at 72 h post-treatment. […] Cells treated with 0.1% of DMSO were used as Control. * represents statistically significant p < 0.05 value.
(§3) Cell proliferation was quantified by violet crystal dye in 1X phosphate-buffered saline (PBS) (2.7 mM KCl, 1.8 mM KH2PO4, 136 mM NaCl, 10 mM Na2HPO4 pH 7.4). The treated cells were incubated in methanol for 15 min and washed two times with distilled water. Cells were dyed with 0.1% crystal violet and washed three times with water and finally violet crystal was recovered with 10% acid acetic to be analyzed in microplate reader Multiskan GO Spectrophotometer (Thermo Scientific™, Ratastie, Finland).
For data set [2], the system named is HaCaT cells (HPV negative non-tumorigenic immortal keratinocytes). In words: Cell proliferation (crystal violet), dose-response, HaCaT. Particulars: Homo sapiens, 72 h.
Experimental: as §1, §2, §3
Data set [3] can be described thus: Cyclic voltammetry in 0.1 M TBABF4/DMSO. Particulars: for irreversible oxidation potential peak (positive potential region) / irreversible anodic peak (negative potential region): Figure 2, vs Ag/Ag+, 100 mV s^−1; for ipa: anodic peak current density; for ipa / Epa / ipc / Epc / E1/2 / ΔEp / |ipa/ipc|: TBABF4 0.1 M/DMSO, 100 mV/s; for Epa: anodic peak potential of redox reaction; for Epa / Epc: vs Ag/Ag+ pseudo-reference; for ipc: cathodic peak current density; for Epc: cathodic peak potential of redox reaction; for E1/2: half-wave potential, E1/2 = (Epa + Epc)/2, vs Ag/Ag+; for ΔEp: potential peak separation, ΔEp = Epc − Epa; for |ipa/ipc|: ratio of anodic to cathodic peak current (reversibility).
Experimental: Electrochemical studies of naphthoquinone–amino acids (3a–c) and chloride–naphthoquinone–amino acids (4a–c) derivatives were studied by cyclic voltammetry (CV) as previously reported [24]. Briefly, non-aqueous solutions of compounds 3a–c or 4a–c at a concentration of 5 mM were dissolved in dimethyl sulfoxide (DMSO, Sigma–Aldrich, St. Louis, MO, USA) containing 0.1 M tetrabutylammonium tetrafluoroborate (TBABF4, Sigma–Aldrich, St. Louis, MO, USA) as supporting electrolyte. Then, the non-aqueous solutions containing 3a–c or 4a–c were studied by CV in a three-electrode cell using a freshly polished glassy carbon disk electrode (GC) (0.07 cm^2, BASi, West Lafayette, IN, USA) as working electrode and a Pt wire (Alfa-Aesar, Tewksbury, MA, USA) as counter electrode. An Ag/Ag^+ electrode in 0.1 M TBABF4/DMSO was used as pseudo-reference electrode. A potential scan was performed from −2.0 V to 0.75 V vs. Ag/Ag^+ at 100 mV s^−1 in the cathodic direction in order to identify any electron transfer reaction associated to compounds 3a–c or 4a–c using a potentiostat/galvanostat PAR VersaStat 3 (Ametek, Inc. Berwyn, PA, USA). Furthermore, any redox reaction processes of 3a–c or 4a–c were further studied at a scan rate of 10, 25, 50, 100, 200, and 300 mV s^−1. As received TBABF4 and DMSO were used without further purification or drying processes. All the non-aqueous testing solutions were degassed for 30 min with high-purity N2 gas before cyclic voltammetry experiments.

Data set [4] deals with SiHa cells (HPV-16 positive cervical tumor line). In words: Cell proliferation (crystal violet), dose-response, SiHa. Particulars: Homo sapiens, 72 h.
Experimental: as §1, §2, §3

Take `O=C1C=C(NC(Cc2ccc(O)cc2)C(=O)O)C(=O)c2ccccc21` (stereo not shown) [Compound 3a, 2-((1,4-dioxo-1,4-dihydronphthalen-2-yl)amino)-3-(4-hydroxyphenyl) propanoic acid]: the melting point fell in the range of 214 to 216 °C. The molecule further had an IC50 in data set [1] of 81.1 µM. This molecule also gave an IC50 in data set [2] of 61.6 µM. Also, in data set [3], the “irreversible oxidation potential peak (positive potential region)” value (“irreversible oxidation potential peak” below) is recorded as “higher than 0.5 V”, the ipa is on record as 0.28 mA cm^−2, the Epa was −1.15 V and the ipc is reported as −0.30 mA cm^−2. In addition, in data set [3], the Epc was −1.27 V, the E1/2 was −1.21 V, the ΔEp worked out at 0.13 V and the “|ipa/ipc|” value is 0.95. Also, the IC50 in data set [4] amounted to 41 µM.

The molecule `CC(C)C(NC1=CC(=O)c2ccccc2C1=O)C(=O)O` (stereo not shown) [Compound 3b, 2-((1,4-dioxo-1,4-dihydronaphthalen-2-yl)amino)-3-methylbutanoic acid] gave a melting point of 170 to 172 °C. Besides, in data set [1], the half-maximal inhibitory concentration (IC50) is 57 µM. For the same molecule, the concentration for half-maximal inhibition (IC50) in data set [2] stood at 55.3 µM. For the same molecule, in data set [3], the “irreversible anodic peak (negative potential region)” value (from here on “irreversible anodic peak”) is given as −0.2 V, the “irreversible oxidation potential peak” value was 0.60 V, the ipa was 0.28 mA cm^−2 and the Epa is on record as −1.16 V. Also, in data set [3], the ipc is recorded as −0.30 mA cm^−2, the Epc is listed as −1.27 V, the E1/2 was −1.21 V and the ΔEp stood at 0.12 V. Moreover, in data set [3], the “|ipa/ipc|” value was found to be 0.95. In addition, half-maximal inhibition in data set [4] (IC50) was put at 47.2 µM.

Molecule `O=C1C=C(NC(Cc2c[nH]c3ccccc23)C(=O)O)C(=O)c2ccccc21` (stereo not shown) [Compound 3c, 2-((1,4-dioxo-1,4-dihidronaphthalen-2-yl)amino)-3-(1H-indol-3-yl)propanoic acid] came in with an IC50 in data set [1] of 25.2 µM. This molecule also yielded an IC50 in data set [2] of 40.8 µM. Further, in data set [3], the “irreversible oxidation potential peak” value came out at 0.45 V, the ipa amounted to 0.26 mA cm^−2, the Epa is −1.19 V and the ipc is −0.27 mA cm^−2. For the same molecule, in data set [3], the Epc is −1.30 V, the E1/2 was −1.24 V, the ΔEp was found to be 0.11 V and the “|ipa/ipc|” value is recorded as 0.95. The same molecule had an IC50 in data set [4] of 28.8 µM.

The molecule `O=C1C(Cl)=C(NC(Cc2ccc(O)cc2)C(=O)O)C(=O)c2ccccc21` (stereo not shown) [Compound 4a, 2-((3-chloro-1,4-dioxo-1,4-dihydronaphthalen-2-yl)amino)-3-(4-hydroxyphenyl)propanoic acid] came in with an IC50 in data set [1] of 7.03 µM. In data set [2], this molecule displayed an IC50 of 9.88 µM. Also, in data set [3], the “irreversible anodic peak” value is on record as −0.33 V, the “irreversible oxidation potential peak” value is given as “higher than 0.5 V”, the ipa is 0.22 mA cm^−2 and the Epa is −1.04 V. Further, in data set [3], the ipc is −0.24 mA cm^−2, the Epc is listed as −1.15 V, the E1/2 is reported as −1.10 V and the ΔEp is 0.11 V. For the same molecule, the “|ipa/ipc|” value in data set [3] worked out at 0.92. Further, in data set [4], 6.83 µM corresponded to half-maximal inhibition (IC50).

With `CC(C)C(NC1=C(Cl)C(=O)c2ccccc2C1=O)C(=O)O` (stereo not shown) [Compound 4b, 2-((3-chloro-1,4-dioxo-1,4-dihydronaphthalen-2-yl)amino)-3-methylbutanoic acid], the melting point was in the range of 54 to 56 °C. Besides, in data set [1], the 50% inhibitory concentration (IC50) was found to be 2.88 µM. In data set [2], the 50% inhibitory concentration (IC50) turned out to be 7.97 µM. In data set [3], the “irreversible anodic peak” value was −0.36 V, the “irreversible oxidation potential peak” value is 0.57 V, the ipa amounted to 0.21 mA cm^−2 and the Epa is given as −1.05 V. Besides, in data set [3], the ipc is given as −0.25 mA cm^−2, the Epc is on record as −1.19 V, the E1/2 was −1.12 V and the ΔEp is 0.14 V. In data set [3], the “|ipa/ipc|” value worked out at 0.83. Also, the half-inhibitory concentration (IC50) in data set [4] was 11.3 µM.

The molecule `O=C1C(Cl)=C(NC(Cc2c[nH]c3ccccc23)C(=O)O)C(=O)c2ccccc21` (stereo not shown) [Compound 4c, 2-((3-chloro-1,4-dioxo-1,4-dihydronaphthalen-2-yl)amino)-3-(1H-indol-3-yl)propanoic acid] registered an IC50 in data set [1] of 2.7 µM. Moreover, in data set [2], the IC50 was approximately 0.331 µM. Further, in data set [3], the “irreversible anodic peak” value is listed as −0.36 V, the “irreversible oxidation potential peak” value is reported as 0.46 V, the ipa is 0.23 mA cm^−2 and the Epa was −1.05 V. Moreover, in data set [3], the ipc is −0.27 mA cm^−2, the Epc was −1.17 V, the E1/2 is on record as −1.11 V and the ΔEp came out at 0.12 V. For the same molecule, the “|ipa/ipc|” value in data set [3] was found to be 0.85. Further, the IC50 in data set [4] came to 3.21 µM.

Broadly, the IC50 is the concentration that inhibits the measured activity by half. High values mean weaker potency, low ones greater potency. As usually defined, the melting point is the temperature of the solid-liquid transition.
